# Measured values as given in US7981930B2, “Compositions and kits for treating influenza” (Adamas Pharmaceuticals, Inc., priority 2007, dated 2011).
# pEC50: −log10 of the molar value. Read-outs that look alike come from different tables or passages of the source.
# What was measured:
# [1] = test system: A/Sydney/05/97 H3N2 virus; assay type: cell-based; conditions: for increase in sensitivity of the virus to the drug in triple combination compared to monotherapy: drug used with the two other drugs vs. monotherapy; for concentration range at which synergy was seen: drugs in combination, MDCK 96-well
# A/Albany/1/98 (H3N2) = assay: microbe, parasite or virus in culture; assay type: cell-based; conditions: for pEC50 / EC50: Influenza A virus, H3N2, MDCK; for pEC50: read-out: EC50, Target serum C; for EC50: read-out: EC50, In vitro C; for EC25, Target serum C: molar equivalent of in vitro EC25; for EC75, Target serum C: molar equivalent of in vitro EC75; for EC25, In vitro C / EC75, In vitro C: MDCK cells in flasks, virus reduction at 72 hrs
# [2] = test system: A/Victoria/3/75 (H3N2) virus; assay: Mouse model of influenza infection, treatment started before infection (Example 3A); assay type: in vivo, mice
# [3] = test system: wild type A/Albany (H3N2) strain; assay: Hollow fiber system, MDCK cells, continuous infusion 168 hours, viral titer and sequencing; assay type: cell-based, Influenza A virus (H3N2); conditions: for effect on viral titer: drug alone at low dose (amantadine 0.1 μg/mL; ribavirin 0.5 μg/mL); for concentrations at which the triple combination demonstrated synergism: hollow fiber, steady-state infusion
# [4] = test system: A/Victoria/3/75 (H3N2) virus; assay: Mouse model of influenza infection, treatment initiated 24 or 48 hours after infection (Example 3B); assay type: in vivo, mice; conditions: for weight loss: day 9
# [5] = test system: Influenza A/Victoria/3/75 (H3N2) virus; assay: In vitro kinetic assay of mono and combination therapy in MDCK and SIAT-1 cells (viral load by CCID50, CPE scoring); assay type: cell-based
# [6] = molar equivalent of in vitro EC50
# [7] = monotherapy, concentration of drug that reduces 50% of the virus at 72 hrs
# [8] = amantadine 3 mg/ml, oseltamivir 10 or 30 mg/kg/day, ribavirin 7 or 21 mg/kg/day, monotherapy
# [9] = drug alone at high dose (amantadine 1.0 μg/mL; ribavirin 5 μg/mL), 48 hours
# [10] = treatment initiated 48 hours after infection
SMILES,increase in sensitivity of the virus to the drug in triple combination compared to monotherapy [1],concentration range at which synergy was seen [1] [µg/mL],pEC50 (A/Albany/1/98 (H3N2); [6]),EC50 (A/Albany/1/98 (H3N2); [7]) [ng/mL],"EC25, Target serum C (A/Albany/1/98 (H3N2)) [nM]","EC75, Target serum C (A/Albany/1/98 (H3N2)) [nM]","EC25, In vitro C (A/Albany/1/98 (H3N2); monotherapy) [ng/mL]","EC75, In vitro C (A/Albany/1/98 (H3N2); monotherapy) [ng/mL]","weight loss during the infection [2, 8]","times to death ([2]; mouse, in vivo)","reduction in titer [3, 9]",effect on viral titer [3],concentrations at which the triple combination demonstrated synergism [3] [µg/mL],"weight loss [4, 10]",other results
"NC12CC3CC(CC(C3)C1)C2 [Amantadine, 1-amino-adamantane]",10 fold,0.1 to 1,6.32,91,288,815,54,153,more substantial,significantly increased,2-3 log,negligible effect,0.1 to 1,~35%,"reduction in viral load ([1]; amantadine monotherapy at 1 μg/ml): ~60%; survival rate ([2]; amantadine 3 mg/ml by Alzet pump (4 mg/kg/day), 3 survivors out of 11): 27%; protection (survival) ([2]; amantadine 10 mg/ml by Alzet pump (13 mg/kg/day)): 92%; weight loss during the infection ([2]; amantadine 10 mg/ml monotherapy): minimal; mice protected, UK/EU mortality criteria (death=20% weight loss) ([2]; mouse, in vivo): 10%; mortality (UK/EU mortality criteria) ([4]; mouse, in vivo): 100%; time post infection until substantial cell death was seen [5]: 144 h"
NC(=O)c1ncn([C@@H]2O[C@H](CO)[C@@H](O)[C@H]2O)n1 [Ribavirin],100 fold,0.032 to 1.0,5.99,420,760,1500,310,615,more substantial,significantly increased,~3 log,negligible effect,0.5 to 5,about 26%,"reduction in viral load ([1]; ribavirin monotherapy at 1 μg/ml): approximately 10%; reduction in viral load ([1]; ribavirin monotherapy at 3.2 μg/ml): ~95%; weight as percent of original weight ([4]; treatment initiated 48 hours after infection, day 13): approximately 80%"
CCOC(=O)C1=C[C@@H](OC(CC)CC)[C@H](NC(C)=O)[C@@H](N)C1 [Oseltamivir],over 100 fold,0.001 to 0.032,,,0.080,0.240,0.025,0.075,more substantial,,,,0.001 to 0.01,~35%,"reduction in viral load ([1]; oseltamivir monotherapy at 0.1 μg/ml): ~50%; EC50 (A/Albany/1/98 (H3N2); 72 h): 0.05 ng/mL; pEC50 (A/Albany/1/98 (H3N2)): 9.80; mice protected, UK/EU mortality criteria (death=20% weight loss) ([2]; oseltamivir 10 mg/kg/day, amantadine 3 mg/ml, ribavirin 7 mg/kg/day, as monotherapy or as triple combination at the same concentrations): 40%; survival benefit ([2]; oseltamivir monotherapy at 10 and 30 mg/kg/day oral gavage): 92-100%; reduction in titer ([3]; oseltamivir alone, both doses (1 and 10 ng/mL)): ~1 log; mortality (UK/EU mortality criteria) ([4]; treatment initiated 24 hours after infection, by day 9, amantadine 28, oseltamivir 10 mg/kg/day): 100%"
